From US20170106109A1 (priority 2010, published 2017)

Legend:
Escherichia coli = type: cell-based
Ralstonia solanacearum [1] = type: cell-based
Ralstonia solanacearum [2] = type: cell-based; remark: listed apart in the source
[3] = system: λ phage DNA HindIII Marker

Compound: OO [Sample 3-3, hydrogen peroxide]
- survival of Escherichia coli (Escherichia coli): a large amount of Escherichia coli survived

Compound: OO [Sample 4-3, hydrogen peroxide]
- survival of Ralstonia solanacearum (Ralstonia solanacearum [1]): a large amount of Ralstonia solanacearum survived

Compound: OO [Sample 6-3, hydrogen peroxide]
- change of bacterial density of Ralstonia solanacearum with time (Ralstonia solanacearum [2]): the bacterial density changed little

Compound: OO [Sample 7-3, hydrogen peroxide]
- DNA ladder on agarose electrophoresis [3]: the DNA ladder did not change
